Measured values reported in ChEMBL document CHEMBL5584284, “Advancing Neurological Therapies: Integrating Novel Compounds and Clinical Trials for Enhanced Cognitive and Neuronal Health” (ACS Med Chem Lett, 2024).
Activity calls are given as the source filed them. The calls are words filed in the database; no cut-off is given here.

Experiments:
Assay type in all cases: functional, cell-based
[1] = system: Cortical neurone; assay: Neuroplasticity effect in Wistar rat cortical neurons assessed as increase in neurite length at <= 10 uM incubated for 72 […]
[2] = system: Cortical neurone; assay: Neuroplasticity effect in Wistar rat cortical neurons assessed as increase in neurite number at <= 10 uM incubated for 72 […]
[3] = system: Cortical neurone; assay: Neuroplasticity effect in Wistar rat cortical neurons assessed as increase in neurite branching at <= 10 uM incubated for 72 […]

SMILES	Activity [1]	Activity [2]	Activity [3]
Fc1ccc(Oc2ccc3c(c2)NC2CCNCCC32)cc1 (stereo not drawn)	Active	Active	Active
c1ccc(COc2ccc3c(c2)NC2CCNCCC32)cc1 (stereo not drawn)	Active	Active	Active
CN1CCC2Nc3cc(Oc4ccccc4)ccc3C2CC1 (stereo not drawn)	Active	Active	Active
CN1CCC2c3ccc(Oc4ccccc4)cc3N(C)C2CC1 (stereo not drawn)	Active	inactive	inactive
CN1CCC2Nc3cc(OCc4ccccc4)ccc3C2CC1 (stereo not drawn)	Active	Active	inactive
CN1CCC2Nc3cc(OCc4ccc(F)cc4)ccc3C2CC1 (stereo not drawn)	Active	Active	Active
